Source: ChEMBL document CHEMBL2380212, “Synthesis, single crystal and antitumor activities of benzimidazole-quinazoline hybrids” (Bioorg Med Chem Lett, 2013)

Legend:
[1] = tested on: ACHN; assay: Cytotoxicity against human ACHN cells at 10 uM after 48 hrs by SRB assay; format: functional; details: read-out: GI
[2] = tested on: U-251; assay: Cytotoxicity against human U251 cells at 10 uM after 48 hrs by SRB assay; format: functional; details: U-251, 48 h, read-out: GI
[3] = tested on: OVCAR-8; assay: Cytotoxicity against human OVCAR8 cells at 10 uM after 48 hrs by SRB assay; format: functional; details: OVCAR-8, 48 h, read-out: GI
[4] = tested on: OVCAR-3; assay: Cytotoxicity against human OVCAR3 cells at 10 uM after 48 hrs by SRB assay; format: functional; details: OVCAR-3, 48 h, read-out: GI
[5] = tested on: SNB-75; assay: Cytotoxicity against human SNB75 cells at 10 uM after 48 hrs by SRB assay; format: functional; details: SNB-75, 48 h, read-out: GI
[6] = tested on: Hs-578T; assay: Cytotoxicity against human Hs578T cells at 10 uM after 48 hrs by SRB assay; format: functional; details: read-out: GI
[7] = tested on: IGROV-1; assay: Cytotoxicity against human IGROV1 cells at 10 uM after 48 hrs by SRB assay; format: functional; details: IGROV-1, 48 h, read-out: GI
[8] = tested on: T47D; assay: Cytotoxicity against human T47D cells at 10 uM after 48 hrs by SRB assay; format: functional; details: read-out: GI
[9] = tested on: TK-10; assay: Cytotoxicity against human TK10 cells at 10 uM after 48 hrs by SRB assay; format: functional; details: TK-10, 48 h, read-out: GI
[10] = tested on: 786-0; assay: Cytotoxicity against human 786-0 cells at 10 uM after 48 hrs by SRB assay; format: functional; details: 786-0, 48 h, read-out: GI
[11] = tested on: A549; assay: Cytotoxicity against human A549 cells at 10 uM after 48 hrs by SRB assay; format: functional; details: A549, 48 h, read-out: GI
[12] = tested on: MDA-MB-468; assay: Cytotoxicity against human MDA-MB-468 cells at 10 uM after 48 hrs by SRB assay; format: functional; details: MDA-MB-468, 48 h, read-out: GI
[13] = tested on: A498; assay: Cytotoxicity against human A498 cells at 10 uM after 48 hrs by SRB assay; format: functional; details: A498, 48 h, read-out: GI
[14] = tested on: SK-MEL-28; assay: Cytotoxicity against human SK-MEL-28 cells at 10 uM after 48 hrs by SRB assay; format: functional; details: SK-MEL-28, 48 h, read-out: GI
[15] = tested on: HL-60(TB); assay: Cytotoxicity against human HL-60(TB) cells at 10 uM after 48 hrs by SRB assay; format: functional; details: HL-60, 48 h, read-out: GI
[16] = tested on: RXF 393; assay: Cytotoxicity against human RXF393 cells at 10 uM after 48 hrs by SRB assay; format: functional; details: RXF 393, 48 h, read-out: GI
[17] = tested on: SK-OV-3; assay: Cytotoxicity against human SKOV3 cells at 10 uM after 48 hrs by SRB assay; format: functional; details: SK-OV-3, 48 h, read-out: GI
[18] = tested on: NCI-H226; assay: Cytotoxicity against human NCI-H226 cells at 10 uM after 48 hrs by SRB assay; format: functional; details: NCI-H226, 48 h, read-out: GI
[19] = tested on: OVCAR-5; assay: Cytotoxicity against human OVCAR5 cells at 10 uM after 48 hrs by SRB assay; format: functional; details: OVCAR-5, 48 h, read-out: GI
[20] = tested on: DU-145; assay: Cytotoxicity against human DU145 cells at 10 uM after 48 hrs by SRB assay; format: functional; details: DU-145, 48 h, read-out: GI
[21] = tested on: UACC-257; assay: Cytotoxicity against human UACC257 cells at 10 uM after 48 hrs by SRB assay; format: functional; details: UACC-257, 48 h, read-out: GI
[22] = tested on: MCF7; assay: Cytotoxicity against human MCF7 cells at 10 uM after 48 hrs by SRB assay; format: functional; details: MCF7, 48 h, read-out: GI
[23] = tested on: HOP-62; assay: Cytotoxicity against human HOP62 cells at 10 uM after 48 hrs by SRB assay; format: functional; details: HOP-62, 48 h, read-out: GI
[24] = tested on: BT-549; assay: Cytotoxicity against human BT549 cells at 10 uM after 48 hrs by SRB assay; format: functional; details: BT-549, 48 h, read-out: GI
[25] = tested on: MDA-MB-231; assay: Cytotoxicity against human MDA-MB-231 cells at 10 uM after 48 hrs by SRB assay; format: functional; details: MDA-MB-231, 48 h, read-out: GI
[26] = tested on: HCT-15; assay: Cytotoxicity against human HCT15 cells at 10 uM after 48 hrs by SRB assay; format: functional; details: HCT-15, 48 h, read-out: GI
[27] = tested on: SF-295; assay: Cytotoxicity against human SF295 cells at 10 uM after 48 hrs by SRB assay; format: functional; details: SF-295, 48 h, read-out: GI
[28] = n-Octanol-phosphate buffer partition coefficient, log P of the compound at pH 7.4 by shake flask method; format: physicochemical
[29] = tested on: UO-31; assay: Cytotoxicity against human UO31 cells at 10 uM after 48 hrs by SRB assay; format: functional; details: UO-31, 48 h, read-out: GI
[30] = tested on: HCC 2998; assay: Cytotoxicity against human HCC2998 cells at 10 uM after 48 hrs by SRB assay; format: functional; details: HCC 2998, 48 h, read-out: GI
[31] = tested on: HCT-116; assay: Cytotoxicity against human HCT116 cells at 10 uM after 48 hrs by SRB assay; format: functional; details: HCT-116, 48 h, read-out: GI
[32] = tested on: K562; assay: Cytotoxicity against human K562 cells at 10 uM after 48 hrs by SRB assay; format: functional; details: K562, 48 h, read-out: GI
[33] = tested on: NCI/ADR-RES; assay: Cytotoxicity against human NCI/ADR-RES cells at 10 uM after 48 hrs by SRB assay; format: functional; details: read-out: GI
[34] = tested on: MDA-MB-435; assay: Cytotoxicity against human MDA-MB-435 cells at 10 uM after 48 hrs by SRB assay; format: functional; details: MDA-MB-435, 48 h, read-out: GI
[35] = tested on: SN12C; assay: Cytotoxicity against human SN12C cells at 10 uM after 48 hrs by SRB assay; format: functional; details: read-out: GI
[36] = tested on: NCI-H460; assay: Cytotoxicity against human NCI-H460 cells at 10 uM after 48 hrs by SRB assay; format: functional; details: NCI-H460, 48 h, read-out: GI
[37] = tested on: SK-MEL-5; assay: Cytotoxicity against human SK-MEL-5 cells at 10 uM after 48 hrs by SRB assay; format: functional; details: SK-MEL-5, 48 h, read-out: GI
[38] = tested on: SF-268; assay: Cytotoxicity against human SF268 cells at 10 uM after 48 hrs by SRB assay; format: functional; details: SF-268, 48 h, read-out: GI
[39] = tested on: PC-3; assay: Cytotoxicity against human PC3 cells at 10 uM after 48 hrs by SRB assay; format: functional; details: PC-3, 48 h, read-out: GI
[40] = Cytotoxicity against human EKVX cells at 10 uM after 48 hrs by SRB assay; format: functional; details: read-out: GI
[41] = tested on: SF-539; assay: Cytotoxicity against human SF539 cells at 10 uM after 48 hrs by SRB assay; format: functional; details: SF-539, 48 h, read-out: GI
[42] = tested on: SK-MEL-2; assay: Cytotoxicity against human SK-MEL-2 cells at 10 uM after 48 hrs by SRB assay; format: functional; details: SK-MEL-2, 48 h, read-out: GI

Compound: C=CCn1c(C)nc2cc(Nc3nc(N4CCOCC4)nc4ccccc34)ccc21
- inhibition of growth at 10 µM [1]: < 10%
- inhibition of growth at 10 µM [2]: < 10%
- inhibition of growth at 10 µM [3]: < 10%
- inhibition of growth at 10 µM [4]: < 10%
- inhibition of growth at 10 µM [5]: < 10%
- inhibition of growth at 10 µM [6]: < 10%
- inhibition of growth at 10 µM [7]: < 10%
- inhibition of growth at 10 µM [8]: < 10%
- inhibition of growth at 10 µM [9]: < 10%
- inhibition of growth at 10 µM [10]: < 10%
- inhibition of growth at 10 µM [11]: < 10%
- inhibition of growth at 10 µM [12]: < 10%
- inhibition of growth at 10 µM [13]: 20.7%
- inhibition of growth at 10 µM [14]: < 10%
- inhibition of growth at 10 µM [15]: 13.5%
- inhibition of growth at 10 µM [16]: < 10%
- inhibition of growth at 10 µM [17]: < 10%
- inhibition of growth at 10 µM [18]: < 10%
- inhibition of growth at 10 µM [19]: < 10%
- inhibition of growth at 10 µM [20]: < 10%
- inhibition of growth at 10 µM [21]: < 10%
- inhibition of growth at 10 µM [22]: < 10%
- inhibition of growth at 10 µM [23]: < 10%
- inhibition of growth at 10 µM [24]: < 10%
- inhibition of growth at 10 µM [25]: < 10%
- inhibition of growth at 10 µM [26]: < 10%
- inhibition of growth at 10 µM [27]: < 10%
- logD [28]: 2.49
- inhibition of growth at 10 µM [29]: < 10%
- inhibition of growth at 10 µM [30]: < 10%
- inhibition of growth at 10 µM [31]: < 10%
- inhibition of growth at 10 µM [32]: < 10%
- inhibition of growth at 10 µM [33]: < 10%
- inhibition of growth at 10 µM [34]: < 10%
- inhibition of growth at 10 µM [35]: < 10%
- inhibition of growth at 10 µM [36]: < 10%
- inhibition of growth at 10 µM [37]: < 10%
- inhibition of growth at 10 µM [38]: < 10%
- inhibition of growth at 10 µM [39]: 11.9%
- inhibition of growth at 10 µM [40]: < 10%
- inhibition of growth at 10 µM [41]: < 10%
- inhibition of growth at 10 µM [42]: < 10%

Compound: C=CCn1c(C)nc2cc(Nc3nc(N4CCCC4)nc4ccccc34)ccc21
- inhibition of growth at 10 µM [1]: < 10%
- inhibition of growth at 10 µM [2]: < 10%
- inhibition of growth at 10 µM [3]: < 10%
- inhibition of growth at 10 µM [4]: < 10%
- inhibition of growth at 10 µM [5]: < 10%
- inhibition of growth at 10 µM [6]: < 10%
- inhibition of growth at 10 µM [7]: < 10%
- inhibition of growth at 10 µM [8]: 22.6%
- inhibition of growth at 10 µM [9]: < 10%
- inhibition of growth at 10 µM [10]: 11.1%
- inhibition of growth at 10 µM [11]: 10.1%
- inhibition of growth at 10 µM [12]: 13.3%
- inhibition of growth at 10 µM [13]: 27.6%
- inhibition of growth at 10 µM [14]: < 10%
- inhibition of growth at 10 µM [15]: < 10%
- inhibition of growth at 10 µM [16]: < 10%
- inhibition of growth at 10 µM [17]: < 10%
- inhibition of growth at 10 µM [18]: 22%
- inhibition of growth at 10 µM [19]: < 10%
- inhibition of growth at 10 µM [20]: < 10%
- inhibition of growth at 10 µM [21]: < 10%
- inhibition of growth at 10 µM [22]: < 10%
- inhibition of growth at 10 µM [23]: < 10%
- inhibition of growth at 10 µM [24]: < 10%
- inhibition of growth at 10 µM [25]: < 10%
- inhibition of growth at 10 µM [26]: < 10%
- inhibition of growth at 10 µM [27]: < 10%
- logD [28]: 2.51
- inhibition of growth at 10 µM [29]: 10.1%
- inhibition of growth at 10 µM [30]: < 10%
- inhibition of growth at 10 µM [31]: < 10%
- inhibition of growth at 10 µM [32]: 14.9%
- inhibition of growth at 10 µM [33]: < 10%
- inhibition of growth at 10 µM [34]: < 10%
- inhibition of growth at 10 µM [35]: < 10%
- inhibition of growth at 10 µM [36]: < 10%
- inhibition of growth at 10 µM [37]: < 10%
- inhibition of growth at 10 µM [38]: < 10%
- inhibition of growth at 10 µM [39]: 18.2%
- inhibition of growth at 10 µM [40]: < 10%
- inhibition of growth at 10 µM [41]: < 10%
- inhibition of growth at 10 µM [42]: < 10%
